This is an account of results in paper PMC5011342, “A high throughput drug screening assay to identify compounds that promote oligodendrocyte differentiation using acutely dissociated and purified oligodendrocyte precursor cells” (BMC Research Notes, 2016).

Several values for one entry are separate records, joined by “and”; a condition that tells them apart may be missing. Equal values may be shown once. Where a name gives a salt, the structure may show the parent alone. Read-outs that look alike come from different tables or passages of the source. Starred links: 1 amine or outer side, 2 acyl side, 3 side chain; linkers in the order of their positions; H or OH if unused. Positions of bridges follow the written chain, without caps; N, C: chain ends. Non-standard residues stand in square brackets, D forms with d. Residues, ends and D or L forms follow the SMILES beside them. Chains are numbered I, II in the order given. Actinocin(9to1) = Cc1c2oc3c(C)ccc(C(=O)[*:1])c3nc-2c(C(=O)[*:2])c(N)c1=O; NMeV = CN[C@H](C(=O)O)C(C)C; Sar = CNCC(=O)O

This data set deals with expanded OPCs. Kind of data set: cells. To be noted: for viability at 0.1 µM / viability at 1 µM / viability at 10 µM: Rattus norvegicus, 72 h. Here is the method: Having established a consistent assay for measuring OL differentiation in vitro, the next step was to utilize this assay to assess the ability of a wide array of compounds to promote OL differentiation. Prior to library screening, we first established the maximum non-toxic dose of each compound in the library. […] Therefore, we added each compound in the NIH clinical collection (NCC) library to OPCs at 10, 1, and 0.1 µM concentrations. Three days later, we assessed viability of the treated cells by measuring AlamarBlue fluorescence, a measure of cell viability (see “Methods” section). […] Appropriately, we established three sets of screening concentrations for library compounds: non-toxic compounds were tested at 10 and 2 µM, slightly toxic compounds (only toxic at 10 µM) were tested at 2 and 0.4 µM, and very toxic compounds were tested at 0.4 and 0.08 µM.
OPCs were expanded in vitro by seeding into PDL-coated tissue culture flasks at 1000–2000 cells/cm^2 in differentiation media supplemented with 10 ng/ml PDGF-AA. Proliferating OPCs were fed every 2–3 days and supplemented with 2–3× concentration of PDGF as needed to prevent OPC differentiation. After 6–7 days of proliferation, OPCs were harvested by trypsinization, plated into PDL-coated 96-well Falcon plates and centrifuged at 200×g to facilitate cell attachment, survival, and even distribution of cells. Expanded OPCs were seeded in differentiation media at 10,000 cells/well and incubated for 2 h at 37 °C, 10 % CO2 prior to addition of compounds. The NCC library was diluted and added to cells at 10, 1, and 0.1 µM; each concentration was tested in quadruplicate. As a positive control for the induction of toxicity, 5 ng/ml tunicamycin was added to 8 wells in each plate. Three days later, a 1:10 dilution of alamarBlue® (AB) was added to each well and cells were incubated 4 h at 37 °C, 10 % CO2. AB fluorescence was measured using a PerkinElmer Victor II fluorescence microplate reader (PerkinElmer, Waltham, MA) with 560 nm excitation/590 nm emission filters. For library screening, the highest concentration of each compound was adjusted to a minimally toxic concentration based on this toxicity data. Compounds were additionally tested at a second concentration that was 1/5th of the top concentration. The final concentration of DMSO in each well was 0.1 %.

Where [1] appears, read: read-out: 0.1 µM (% DMSO), alamarBlue viability of expanded OPCs, compound at 0.1 µM, sheet All Tox data.
The mark [2] stands for this setting: read-out: 1 µM (% DMSO), alamarBlue viability of expanded OPCs, compound at 1 µM, sheet All Tox data.
The mark [3] stands for this setting: read-out: 10 µM (% DMSO), alamarBlue viability of expanded OPCs, compound at 10 µM, sheet All Tox data.
The mark [4] stands for this setting: alamarBlue viability, NCC library compound at 0.1 µM, sheet "All Tox data".
Where [5] appears, read: alamarBlue viability, NCC library compound at 1 µM, sheet "All Tox data".
Where [6] appears, read: alamarBlue viability, NCC library compound at 10 µM, sheet "All Tox data".
[7] abbreviates: read-out: 0.1 µM (% DMSO), alamarBlue viability, NCC library compound at 0.1 µM, sheet "All Tox data".
Setting [8] is: read-out: 1 µM (% DMSO), alamarBlue viability, NCC library compound at 1 µM, sheet "All Tox data".
Setting [9] is: read-out: 10 µM (% DMSO), alamarBlue viability, NCC library compound at 10 µM, sheet "All Tox data".
Setting [10] is: alamarBlue viability of expanded OPCs, compound at 0.1 µM, relative to DMSO control.
Setting [11] is: alamarBlue viability of expanded OPCs, compound at 1 µM, relative to DMSO control.
[12] abbreviates: alamarBlue viability of expanded OPCs, compound at 10 µM, relative to DMSO control.

Regarding `Clc1ccccc1CN1CCc2sccc2C1` [Ticlopidine], the viability at 0.1 µM under setting [1] was found to be 107%. Besides, the viability at 1 µM under setting [2] came to 103%. Moreover, the viability at 10 µM under setting [3] is 90.3%.

In the case of `C[C@]12CCC(=O)C=C1CC[C@@H]1[C@@H]2C(=O)C[C@@]2(C)[C@H]1CC[C@]2(O)C(=O)CO` [Cortisone], under setting [4], the “0.1 µM (% DMSO)” value is 99.5 % DMSO. Besides, the “1 µM (% DMSO)” value under setting [5] came to 105.4 % DMSO. The “10 µM (% DMSO)” value under setting [6] is recorded as 105.4 % DMSO.

In the case of `Cc1c2oc3c(C)ccc(C(=O)N[C@@H]4C(=O)N[C@H](C(C)C)C(=O)N5CCC[C@H]5C(=O)N(C)CC(=O)N(C)[C@@H](C(C)C)C(=O)O[C@@H]4C)c3nc-2c(C(=O)N[C@@H]2C(=O)N[C@H](C(C)C)C(=O)N3CCC[C@H]3C(=O)N(C)CC(=O)N(C)[C@@H](C(C)C)C(=O)O[C@@H]2C)c(N)c1=O` [Dactinomycin] (I: T[dV]P[Sar][NMeV] / II: T[dV]P[Sar][NMeV]; ester I:1-I:C, II:1-II:C; linker I:N-II:N via Actinocin(9to1)), under “read-out: 0.1 µM (% DMSO)”, the viability at 0.1 µM was found to be 10.2%. Moreover, the viability at 1 µM (read-out: 1 µM (% DMSO)) came out at 11.1%. The viability at 10 µM (read-out: 10 µM (% DMSO)) was 12.2%.

For the compound `COc1ccc(CCN(C)CCCC(C#N)(c2ccc(OC)c(OC)c2)C(C)C)cc1OC` (stereo not drawn) [Verapamil], the viability at 0.1 µM (read-out: 0.1 µM (% DMSO)) is 84.5%. Further, where the note is “read-out: 1 µM (% DMSO)”, the viability at 1 µM stood at 92.8%. For the same compound, where the note is “read-out: 10 µM (% DMSO)”, the viability at 10 µM stood at 43%.

Consider `Cc1ccc(NC(=O)c2ccc(CN3CCN(C)CC3)cc2)cc1Nc1nccc(-c2cccnc2)n1` [Imatinib mesylate], for which the viability at 0.1 µM under setting [7] is 93.7%. In addition, the viability at 1 µM under setting [8] amounted to 70.5%. Besides, under setting [9], the viability at 10 µM worked out at 18%.

As for `Cc1ccccc1C(OCCN(C)C)c1ccccc1` (stereo not drawn) [Orphenadrine], the “0.1 µM (% DMSO)” value under setting [10] was 86.1 % DMSO and 95.1 % DMSO. The “1 µM (% DMSO)” value under setting [11] was 67.2 % DMSO and 74.3 % DMSO. Further, under setting [12], the “10 µM (% DMSO)” value is 47.8 % DMSO and 50.8 % DMSO.

Take `Cc1cc(NS(=O)(=O)c2ccc(N)cc2)no1` [Sulfamethoxazole]: the viability at 0.1 µM under setting [7] stood at 90.6%. Also, under setting [8], the viability at 1 µM was 96.3%. Under setting [9], the viability at 10 µM turned out to be 96.5%.

On to `O=C1c2c(O)ccc(O)c2C(=O)c2c(NCCNCCO)ccc(NCCNCCO)c21` [Mitoxantrone], for which the “0.1 µM (% DMSO)” value under setting [10] was determined as 9.7 % DMSO. In addition, the “1 µM (% DMSO)” value under setting [11] is 9.0 % DMSO. Moreover, under setting [12], the “10 µM (% DMSO)” value came to 7.8 % DMSO.

With `COc1cccc2c1C(=O)c1c(O)c3c(c(O)c1C2=O)C[C@@](O)(C(=O)CO)C[C@@H]3O[C@H]1C[C@H](N)[C@H](O)[C@H](C)O1` [Doxorubicin], the viability at 0.1 µM under setting [1] is 86.2%. Also, the viability at 1 µM under setting [2] was found to be 11%. For the same compound, the viability at 10 µM under setting [3] worked out at 13.4%.

In the case of `Nc1ncnc2c1ncn2[C@@H]1O[C@H](CO)C[C@H]1O` [Cordycepin], the viability at 0.1 µM under setting [1] stood at 71.9%. The viability at 1 µM under setting [2] turned out to be 38.3%. Also, under setting [3], the viability at 10 µM was determined as 16%.

For the compound `CCCN[C@H]1CCc2nc(N)sc2C1` [Pramipexole], the viability at 0.1 µM under setting [1] amounted to 88.8%. Also, the viability at 1 µM under setting [2] stood at 92.5%. The viability at 10 µM under setting [3] stood at 96%.

For the compound `CC(=O)[C@]1(O)Cc2c(O)c3c(c(O)c2[C@@H](O[C@H]2C[C@H](N)[C@H](O)[C@H](C)O2)C1)C(=O)c1ccccc1C3=O` [Idarubicin], the viability at 0.1 µM under setting [1] came to 13.9%. Also, the viability at 1 µM under setting [2] came to 10.9%. For the same compound, under setting [3], the viability at 10 µM was 11.4%.

Regarding `CN(C)CCCN1c2ccccc2CCc2ccccc21` [Imipramine], under setting [7], the viability at 0.1 µM amounted to 79.4%. Moreover, the viability at 1 µM under setting [8] came to 61.9%. Further, under setting [9], the viability at 10 µM came to 30.6%.

Turning to `C[C@]12CC[C@H]3[C@@H](CCC4=CC(=O)CC[C@@]43C)[C@@H]1CC[C@@H]2O` [Testosterone], the viability at 0.1 µM (read-out: 0.1 µM (% DMSO)) amounted to 88.4%. For the same compound, the viability at 1 µM (read-out: 1 µM (% DMSO)) is 87.4%. Under “read-out: 10 µM (% DMSO)”, the viability at 10 µM is 86.2%. Also, where the note is “rat”, the “0.1 µM (% DMSO)” value stood at 87.3 % DMSO, the “1 µM (% DMSO)” value is given as 87.6 % DMSO and the “10 µM (% DMSO)” value is reported as 84.8 % DMSO.

Consider `C[C@]12CCC(=O)C=C1CC[C@@H]1[C@@H]2[C@@H](O)C[C@@]2(C)[C@H]1CC[C@]2(O)C(=O)CO` [Hydrocortisone], for which the “0.1 µM (% DMSO)” value under setting [10] was 122.3 % DMSO and 114.4 % DMSO. In addition, the “1 µM (% DMSO)” value under setting [11] was 115.5 % DMSO and 108.5 % DMSO. Besides, the “10 µM (% DMSO)” value under setting [12] is 113.8 % DMSO and 107.0 % DMSO.

For `CC[C@]1(O)C[C@H]2CN(CCc3c([nH]c4ccccc34)[C@@](C(=O)OC)(c3cc4c(cc3OC)N(C=O)[C@H]3[C@@](O)(C(=O)OC)[C@H](OC(C)=O)[C@]5(CC)C=CCN6CC[C@]43[C@@H]65)C2)C1` [Vincristine], the viability at 0.1 µM under setting [7] is 17.4%. Also, the viability at 1 µM under setting [8] came to 11.1%. The viability at 10 µM under setting [9] was 9%.

In the case of Medroxyprogesterone, under setting [4], the “0.1 µM (% DMSO)” value stood at 117.3 % DMSO. The “1 µM (% DMSO)” value under setting [5] is given as 126.7 % DMSO. The “10 µM (% DMSO)” value under setting [6] was determined as 141.4 % DMSO.

Turning to `COc1cc2nc(N3CCN(C(=O)c4ccco4)CC3)nc(N)c2cc1OC` [Prazosin], the viability at 0.1 µM under setting [1] was 80.9%. Besides, under setting [2], the viability at 1 µM turned out to be 87.6%. Under setting [3], the viability at 10 µM turned out to be 13.1%.

As to `CC(C)CC(N(C)C)C1(c2ccc(Cl)cc2)CCC1` (stereo not drawn) [Sibutramine], the viability at 0.1 µM under setting [7] is 88.3%. Besides, the viability at 1 µM under setting [8] amounted to 84%. The viability at 10 µM under setting [9] stood at 84.4%.

In the case of `COc1cccc2c1C(=O)c1c(O)c3c(c(O)c1C2=O)C[C@@](O)(C(=O)CO)C[C@@H]3O[C@H]1C[C@H](N)[C@H](O)[C@H](C)O1` [Adriamycin], the “0.1 µM (% DMSO)” value under setting [10] is 9.9 % DMSO and the “0.1 µM (% DMSO)” value (alamarBlue viability of expanded OPCs, compound at 0.1 µM, sheet All Tox data) was 84.2 % DMSO. Also, the “1 µM (% DMSO)” value under setting [11] was found to be 9.6 % DMSO and the “1 µM (% DMSO)” value (alamarBlue viability of expanded OPCs, compound at 1 µM, sheet All Tox data) was determined as 11.2 % DMSO. In addition, the “10 µM (% DMSO)” value by setting is: under setting [12], 7.8 % DMSO; (alamarBlue viability of expanded OPCs, compound at 10 µM, sheet All Tox data) 11.9 % DMSO.

For the compound `COc1cc([C@@H]2c3cc4c(cc3[C@H](O)[C@H]3COC(=O)[C@H]23)OCO4)cc(OC)c1OC` [Podophyllotoxin], the “0.1 µM (% DMSO)” value under setting [10] was 14.8 % DMSO. Also, the “1 µM (% DMSO)” value under setting [11] is 10.6 % DMSO. Further, the “10 µM (% DMSO)” value under setting [12] worked out at 9.1 % DMSO.
